Test results from patent US12157741B2, “Macrocyclic inhibitors of DYRK1A” (DANA-FARBER CANCER INSTITUTE, INC., priority 2018, dated 2024).
Where two headings read alike, the source gives them in different places.

Columns and labels:
Assay type in all cases: binding
various enzymes [1] = biological target: various enzymes (Homo sapiens, UniProt P10721, D816H)
Method: (§1) Ambit profiling was conducted in accordance with the manufacturer's instructions.

various enzymes [2] = biological target: various enzymes (Homo sapiens, UniProt P53778); details: compound 1 uM
Method: as §1

various enzymes [3] = biological target: various enzymes (Homo sapiens, UniProt Q14164); details: compound 1 uM
Method: as §1

various enzymes [4] = biological target: various enzymes (Homo sapiens, UniProt Q8IWQ3); details: compound 1 uM
Method: as §1

various enzymes [5] = biological target: various enzymes (Homo sapiens, UniProt Q15375); details: compound 1 uM
Method: as §1

various enzymes [6] = biological target: various enzymes (Homo sapiens, UniProt Q9H0K1); details: compound 1 uM
Method: as §1

various enzymes [7] = biological target: various enzymes (Homo sapiens, UniProt P00519, Q252H); details: compound 1 uM
Method: as §1

various enzymes [8] = biological target: various enzymes (Homo sapiens, UniProt Q99683); details: compound 1 uM
Method: as §1

various enzymes [9] = biological target: various enzymes (Homo sapiens, UniProt Q9Y4K4); details: compound 1 uM
Method: as §1

various enzymes [10] = biological target: various enzymes (Homo sapiens, UniProt P32298); details: compound 1 uM
Method: as §1

various enzymes [11] = biological target: various enzymes (Homo sapiens, UniProt Q9P286); details: compound 1 uM
Method: as §1

various enzymes [12] = biological target: various enzymes (Homo sapiens, UniProt Q9BYT3); details: compound 1 uM
Method: as §1

various enzymes [13] = biological target: various enzymes (Homo sapiens, UniProt Q15746); details: compound 1 uM
Method: as §1

various enzymes [14] = biological target: various enzymes (Homo sapiens, UniProt Q6P2M8); details: compound 1 uM
Method: as §1

various enzymes [15] = biological target: various enzymes (Homo sapiens, UniProt P54760); details: compound 1 uM
Method: as §1

various enzymes [16] = biological target: T1, various enzymes (Homo sapiens, UniProt O43283); details: compound 1 uM
T1 sequence (O43283 1-966): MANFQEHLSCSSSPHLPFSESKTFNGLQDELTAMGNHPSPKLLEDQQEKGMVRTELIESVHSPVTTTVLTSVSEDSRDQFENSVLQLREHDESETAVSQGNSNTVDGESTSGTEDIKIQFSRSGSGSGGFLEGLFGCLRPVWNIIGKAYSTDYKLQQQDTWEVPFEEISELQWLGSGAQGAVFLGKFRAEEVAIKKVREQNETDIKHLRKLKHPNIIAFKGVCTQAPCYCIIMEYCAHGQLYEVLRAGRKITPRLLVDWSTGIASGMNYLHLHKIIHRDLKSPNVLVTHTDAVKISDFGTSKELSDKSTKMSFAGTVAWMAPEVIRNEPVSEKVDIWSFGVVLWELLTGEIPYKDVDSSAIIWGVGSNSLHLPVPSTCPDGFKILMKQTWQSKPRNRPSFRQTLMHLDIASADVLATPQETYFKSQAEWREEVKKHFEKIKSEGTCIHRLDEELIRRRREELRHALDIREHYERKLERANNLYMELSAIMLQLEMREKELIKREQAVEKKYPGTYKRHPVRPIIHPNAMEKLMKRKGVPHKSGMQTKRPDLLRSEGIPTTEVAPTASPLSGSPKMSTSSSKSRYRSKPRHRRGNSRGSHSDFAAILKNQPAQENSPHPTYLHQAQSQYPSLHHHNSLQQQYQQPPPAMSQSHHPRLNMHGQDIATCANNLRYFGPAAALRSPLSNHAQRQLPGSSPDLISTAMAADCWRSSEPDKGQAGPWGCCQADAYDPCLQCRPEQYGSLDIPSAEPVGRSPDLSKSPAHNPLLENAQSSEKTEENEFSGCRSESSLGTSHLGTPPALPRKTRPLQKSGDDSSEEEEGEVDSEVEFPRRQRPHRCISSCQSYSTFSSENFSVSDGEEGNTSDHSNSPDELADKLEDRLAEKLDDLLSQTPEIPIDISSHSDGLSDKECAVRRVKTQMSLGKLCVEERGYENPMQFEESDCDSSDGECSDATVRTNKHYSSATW
Method: as §1

various enzymes [17] = biological target: various enzymes (Homo sapiens, UniProt Q8TDX7); details: compound 1 uM
Method: as §1

various enzymes [18] = biological target: various enzymes (Homo sapiens, UniProt P36888, R834Q)
Method: as §1

various enzymes [19] = biological target: various enzymes (Homo sapiens, UniProt Q52WX2); details: compound 1 uM
Method: as §1

Chain of various enzymes (Homo sapiens, UniProt P10721, D816H) (P10721 26-976 D816H): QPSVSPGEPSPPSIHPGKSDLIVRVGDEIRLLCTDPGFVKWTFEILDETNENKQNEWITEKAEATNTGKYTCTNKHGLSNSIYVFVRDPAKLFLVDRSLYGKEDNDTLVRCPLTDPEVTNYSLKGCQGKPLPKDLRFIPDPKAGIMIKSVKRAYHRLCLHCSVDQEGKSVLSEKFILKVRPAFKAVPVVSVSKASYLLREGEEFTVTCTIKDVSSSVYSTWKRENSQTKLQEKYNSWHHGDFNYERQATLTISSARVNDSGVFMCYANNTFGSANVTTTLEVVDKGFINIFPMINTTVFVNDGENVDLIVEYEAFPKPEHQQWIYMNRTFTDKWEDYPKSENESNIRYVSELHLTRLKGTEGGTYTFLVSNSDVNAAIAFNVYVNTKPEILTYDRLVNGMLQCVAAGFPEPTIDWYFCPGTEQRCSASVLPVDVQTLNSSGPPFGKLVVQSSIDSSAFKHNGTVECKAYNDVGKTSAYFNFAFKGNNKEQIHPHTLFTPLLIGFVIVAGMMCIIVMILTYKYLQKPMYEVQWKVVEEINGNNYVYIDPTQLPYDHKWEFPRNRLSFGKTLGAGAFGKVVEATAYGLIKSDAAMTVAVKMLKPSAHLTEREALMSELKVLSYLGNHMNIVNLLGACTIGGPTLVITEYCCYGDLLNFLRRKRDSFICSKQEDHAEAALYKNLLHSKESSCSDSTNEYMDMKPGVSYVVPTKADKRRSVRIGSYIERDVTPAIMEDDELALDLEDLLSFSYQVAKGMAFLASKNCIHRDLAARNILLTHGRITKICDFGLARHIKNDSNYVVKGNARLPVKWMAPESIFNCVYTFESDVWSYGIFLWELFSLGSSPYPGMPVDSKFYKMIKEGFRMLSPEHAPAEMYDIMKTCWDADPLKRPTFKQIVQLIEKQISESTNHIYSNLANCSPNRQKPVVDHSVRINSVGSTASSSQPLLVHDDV
Chain of various enzymes (Homo sapiens, UniProt Q8TDX7) (Q8TDX7 whole entry): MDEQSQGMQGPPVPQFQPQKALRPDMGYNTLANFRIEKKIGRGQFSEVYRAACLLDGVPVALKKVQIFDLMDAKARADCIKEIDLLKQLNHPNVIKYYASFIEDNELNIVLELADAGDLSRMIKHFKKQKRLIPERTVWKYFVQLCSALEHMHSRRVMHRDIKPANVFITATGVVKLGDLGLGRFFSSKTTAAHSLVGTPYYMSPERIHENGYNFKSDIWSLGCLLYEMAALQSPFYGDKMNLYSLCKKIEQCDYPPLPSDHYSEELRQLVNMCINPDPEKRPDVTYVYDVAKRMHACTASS
Chain of various enzymes (Homo sapiens, UniProt P54760) (P54760 16-987): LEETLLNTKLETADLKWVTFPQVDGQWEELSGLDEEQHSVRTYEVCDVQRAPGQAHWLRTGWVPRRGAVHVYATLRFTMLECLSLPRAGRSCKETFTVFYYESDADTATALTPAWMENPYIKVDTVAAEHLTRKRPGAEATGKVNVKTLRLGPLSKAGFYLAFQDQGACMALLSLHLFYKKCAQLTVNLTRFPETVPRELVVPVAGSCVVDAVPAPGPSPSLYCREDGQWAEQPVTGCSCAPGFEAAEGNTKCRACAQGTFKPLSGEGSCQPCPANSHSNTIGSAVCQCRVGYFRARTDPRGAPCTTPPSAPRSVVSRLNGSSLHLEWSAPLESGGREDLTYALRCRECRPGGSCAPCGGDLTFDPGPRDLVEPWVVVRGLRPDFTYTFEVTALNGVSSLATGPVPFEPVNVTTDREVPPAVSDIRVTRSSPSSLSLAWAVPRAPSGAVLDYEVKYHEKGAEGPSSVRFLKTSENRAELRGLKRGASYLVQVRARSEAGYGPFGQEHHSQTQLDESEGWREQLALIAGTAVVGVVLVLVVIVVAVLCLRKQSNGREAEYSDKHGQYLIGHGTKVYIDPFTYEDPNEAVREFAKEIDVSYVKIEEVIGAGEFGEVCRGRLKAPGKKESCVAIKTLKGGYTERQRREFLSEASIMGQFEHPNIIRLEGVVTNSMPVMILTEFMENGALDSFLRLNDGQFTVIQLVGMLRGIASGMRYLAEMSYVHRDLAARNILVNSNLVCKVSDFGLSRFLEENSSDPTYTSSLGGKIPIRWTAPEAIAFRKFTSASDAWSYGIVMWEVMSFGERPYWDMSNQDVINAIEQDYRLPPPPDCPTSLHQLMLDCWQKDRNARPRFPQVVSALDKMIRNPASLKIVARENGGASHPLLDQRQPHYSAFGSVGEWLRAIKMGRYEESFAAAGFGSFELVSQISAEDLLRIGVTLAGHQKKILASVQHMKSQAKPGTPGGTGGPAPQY
Chain of various enzymes (Homo sapiens, UniProt Q99683) (Q99683 whole entry): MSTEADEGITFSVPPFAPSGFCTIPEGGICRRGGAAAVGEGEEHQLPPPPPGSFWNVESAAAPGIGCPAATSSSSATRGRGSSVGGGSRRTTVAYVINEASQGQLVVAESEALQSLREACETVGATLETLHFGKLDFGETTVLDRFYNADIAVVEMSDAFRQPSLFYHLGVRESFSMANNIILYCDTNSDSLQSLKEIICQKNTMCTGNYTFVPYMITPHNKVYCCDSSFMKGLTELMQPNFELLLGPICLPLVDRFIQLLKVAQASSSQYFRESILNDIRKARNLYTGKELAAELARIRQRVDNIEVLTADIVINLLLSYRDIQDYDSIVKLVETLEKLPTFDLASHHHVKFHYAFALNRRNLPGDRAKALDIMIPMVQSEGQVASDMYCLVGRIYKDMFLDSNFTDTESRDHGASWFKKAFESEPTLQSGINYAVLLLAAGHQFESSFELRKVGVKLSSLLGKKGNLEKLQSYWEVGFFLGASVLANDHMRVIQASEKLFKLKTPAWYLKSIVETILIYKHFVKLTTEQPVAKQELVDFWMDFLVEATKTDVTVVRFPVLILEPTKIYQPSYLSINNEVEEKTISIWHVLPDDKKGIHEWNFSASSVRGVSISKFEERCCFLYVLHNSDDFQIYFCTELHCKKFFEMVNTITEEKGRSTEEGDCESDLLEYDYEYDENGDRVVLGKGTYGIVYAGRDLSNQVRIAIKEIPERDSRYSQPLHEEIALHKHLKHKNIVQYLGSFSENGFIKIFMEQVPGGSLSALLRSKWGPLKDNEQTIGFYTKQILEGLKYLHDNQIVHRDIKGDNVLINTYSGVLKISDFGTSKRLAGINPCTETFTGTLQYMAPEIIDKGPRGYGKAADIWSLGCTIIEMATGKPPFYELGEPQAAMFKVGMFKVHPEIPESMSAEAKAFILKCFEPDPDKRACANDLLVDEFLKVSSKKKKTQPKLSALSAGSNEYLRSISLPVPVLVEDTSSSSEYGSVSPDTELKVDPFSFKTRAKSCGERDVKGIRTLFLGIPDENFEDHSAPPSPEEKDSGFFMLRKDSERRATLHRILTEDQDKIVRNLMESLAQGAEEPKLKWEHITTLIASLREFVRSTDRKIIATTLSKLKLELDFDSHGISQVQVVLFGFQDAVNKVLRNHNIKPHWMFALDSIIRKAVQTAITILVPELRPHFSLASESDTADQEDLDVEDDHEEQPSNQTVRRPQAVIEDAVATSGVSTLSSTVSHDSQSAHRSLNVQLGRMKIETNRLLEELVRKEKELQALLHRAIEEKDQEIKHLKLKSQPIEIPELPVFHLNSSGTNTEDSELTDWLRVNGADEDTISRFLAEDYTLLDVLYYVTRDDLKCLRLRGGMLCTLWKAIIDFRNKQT
Chain of various enzymes (Homo sapiens, UniProt Q9H0K1) (Q9H0K1 whole entry): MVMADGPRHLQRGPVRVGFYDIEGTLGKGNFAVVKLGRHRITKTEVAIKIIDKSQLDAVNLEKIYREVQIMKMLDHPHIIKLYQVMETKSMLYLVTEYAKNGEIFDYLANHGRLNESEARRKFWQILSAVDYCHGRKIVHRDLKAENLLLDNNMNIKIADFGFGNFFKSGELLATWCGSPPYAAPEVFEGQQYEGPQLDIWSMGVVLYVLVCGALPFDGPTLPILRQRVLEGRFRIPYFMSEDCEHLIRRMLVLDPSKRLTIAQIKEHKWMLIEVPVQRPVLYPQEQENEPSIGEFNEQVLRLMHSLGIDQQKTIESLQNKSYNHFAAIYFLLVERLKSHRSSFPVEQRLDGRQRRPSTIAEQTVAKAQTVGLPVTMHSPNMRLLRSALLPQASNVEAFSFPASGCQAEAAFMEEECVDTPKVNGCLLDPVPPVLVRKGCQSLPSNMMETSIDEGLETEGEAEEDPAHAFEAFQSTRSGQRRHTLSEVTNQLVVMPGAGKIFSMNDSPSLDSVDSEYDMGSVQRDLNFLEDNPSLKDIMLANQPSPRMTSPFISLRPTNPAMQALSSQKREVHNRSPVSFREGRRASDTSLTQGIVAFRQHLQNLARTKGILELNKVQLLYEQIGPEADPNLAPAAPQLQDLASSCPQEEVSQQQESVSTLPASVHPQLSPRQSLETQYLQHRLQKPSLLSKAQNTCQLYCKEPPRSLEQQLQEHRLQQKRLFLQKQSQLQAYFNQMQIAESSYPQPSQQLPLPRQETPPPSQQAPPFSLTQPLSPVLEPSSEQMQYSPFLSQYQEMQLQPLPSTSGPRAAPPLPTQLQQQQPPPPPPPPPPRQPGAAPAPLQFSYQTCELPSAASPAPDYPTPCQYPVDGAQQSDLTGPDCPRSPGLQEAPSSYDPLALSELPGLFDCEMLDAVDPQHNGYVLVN
Chain of various enzymes (Homo sapiens, UniProt Q6P2M8) (Q6P2M8 whole entry): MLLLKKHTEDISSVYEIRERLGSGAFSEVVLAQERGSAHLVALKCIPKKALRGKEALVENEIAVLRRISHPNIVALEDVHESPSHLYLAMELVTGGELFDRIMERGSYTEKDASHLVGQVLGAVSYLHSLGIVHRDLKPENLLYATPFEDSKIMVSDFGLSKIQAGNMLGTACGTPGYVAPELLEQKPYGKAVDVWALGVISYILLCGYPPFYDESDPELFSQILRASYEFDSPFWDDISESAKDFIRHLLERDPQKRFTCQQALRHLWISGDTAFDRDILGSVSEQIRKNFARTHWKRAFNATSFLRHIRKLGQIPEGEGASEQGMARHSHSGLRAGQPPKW

Structure (SMILES) | Ambit profiling: p38-gamma (various enzymes [2]) | Ambit profiling: IKK-epsilon (various enzymes [3]) | Ambit profiling: BRSK2 (various enzymes [4]) | Ambit profiling: EPHA7 (various enzymes [5]) | Ambit profiling: SIK2 (various enzymes [6]) | Ambit profiling: ABL1(Q252H)-nonphosphorylated (various enzymes [7]) | Ambit profiling: ABL1(Q252H)-phosphorylated (various enzymes [7]) | Ambit profiling: ASK1 (various enzymes [8]) | Ambit profiling: MAP4K5 (various enzymes [9]) | Ambit profiling: GRK4 (various enzymes [10]) | Ambit profiling: PAK7 (various enzymes [11]) | Ambit profiling: STK33 (various enzymes [12]) | Ambit profiling: MYLK (various enzymes [13]) | Ambit profiling: CAMK1B (various enzymes [14]) | Ambit profiling: EPHB4 (various enzymes [15]) | Ambit profiling: LZK (various enzymes [16]) | Ambit profiling: NEK7 (various enzymes [17]) | Ambit profiling: SBK1 (various enzymes [19]) | further results
COc1c2c(nn1C)CN(C(C)C)C(=O)CCCn1cc(c(C(F)(F)F)n1)-c1c[nH]c3ncc-2cc13 [Compound 50, (Z)-5-isopropyl-35-methoxy-31-methyl-13-(trifluoromethyl)-11H,21H,31H-5-aza-2(3,5)-pyrrolo[2,3-b]pyridina-1(4,1),3(4,3)-dipyrazolacyclononaphan-6-one] | 75 | 19 | 72 | 50 | 32 | 2.4 | 1.6 | 100 | 4.1 | 38 | 100 | 23 | 14 | 16 | 40 | 68 | 68 | 98 | Ambit profiling: KIT(D816H) (various enzymes [1]): 4.5; Ambit profiling: FLT3(R834Q) (various enzymes [18]): 0
CC(C)N1Cc2nn(C)cc2-c2cnc3[nH]cc(c3c2)-c2cn(nc2C(F)(F)F)CCCC1=O [Compound 45, (Z)-5-isopropyl-31-methyl-13-(trifluoromethyl)-11H,21H,31H-5-aza-2(3,5)-pyrrolo[2,3-b]pyridina-1(4,1),3(4,3)-dipyrazolacyclononaphan-6-one] | 74 | 40 | 64 | 59 | 27 | 3.2 | 20 | 100 | 1.2 | 14 | 51 | 71 | 37 | 25 | 76 | 42 | 97 | 100 | Ambit profiling: KIT(D816H) (various enzymes [1]; compound 1 uM): 35; Ambit profiling: FLT3(R834Q) (various enzymes [18]; compound 1 uM): 8.7
